Like-named read-outs stand apart in the source and are kept apart here.
Experiments:
[1] = target: T1, SARS-Cov-2 3CLpro (Severe acute respiratory syndrome coronavirus 2, UniProt P0DTD1); test: biochemical; conditions: 3CLpro, 30 mins preincubation, SAMDI-MS; read-out: SARS-Cov-2 IC50 (class)
T1 construct: 3CLpro and HRV3C was added using a Multidrop Combi

[2] = target: T2, human cathepsin L (Homo sapiens, UniProt P07711); test: Cathepsin L assay (Z-FR-AMC fluorescence); type: biochemical; conditions: 10 pM human cathepsin L, 30 mins preincubation, Z-FR-AMC 2 μM
T2 construct: purchased R&D Systems
T2 sequence (P07711 114-333): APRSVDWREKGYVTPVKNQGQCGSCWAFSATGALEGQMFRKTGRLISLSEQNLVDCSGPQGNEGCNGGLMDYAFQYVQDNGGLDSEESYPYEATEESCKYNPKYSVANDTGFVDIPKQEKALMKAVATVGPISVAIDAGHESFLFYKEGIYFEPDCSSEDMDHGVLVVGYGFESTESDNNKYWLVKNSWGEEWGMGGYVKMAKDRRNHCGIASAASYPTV
Outline: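 Human cathepsin L (10 pM) was preincubated 30 min with compound, then reactions were started with Z-FR-AMC substrate (2 μM final). AMC fluorescence (355/460 nm) was read every 2 min over 30 min. IC50 came from a four-parameter curve fit.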

[3] = target: T3, HRV3C (Human rhinovirus 14, UniProt P03303); test: biochemical; set-up: species or system HRV; conditions: HRV3C, 30 mins preincubation, SAMDI-MS
T3 construct: 3CLpro and HRV3C was added using a Multidrop Combi
T3 sequence (P03303 1538-1719): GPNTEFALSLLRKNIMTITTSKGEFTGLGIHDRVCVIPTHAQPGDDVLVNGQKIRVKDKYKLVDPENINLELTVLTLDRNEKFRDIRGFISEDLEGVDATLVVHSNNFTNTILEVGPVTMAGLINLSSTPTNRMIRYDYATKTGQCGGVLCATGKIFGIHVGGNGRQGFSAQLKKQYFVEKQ

[4] = tested on: SARS-CoV-2-GHB-03021/2020; type: cell-based; conditions: read-out: VeroE6 + CP (EC50)
[5] = tested on: B.1.1.7 lineage SARS-CoV-2; test: microbe, parasite or virus in culture; type: cell-based; conditions: Severe acute respiratory syndrome coronavirus 2, 96 h, read-out: A549-dual_ACE2_TMPRSS2 (EC50)
[6] = tested on: human beta-coronavirus OC43; test: OC43 coronavirus antiviral assay in HeLa cells (cytopathic effect, cell-titer-glo); type: cell-based; conditions: Betacoronavirus 1, OC43, HeLa, 144 h, 6 days at 33° C.

| Compound | IC50 [1] | IC50 [2] | IC50 ([3]; read-out: HRV IC50 (bound)) | EC50 [4] | EC50 [5] | EC50 ([6]; read-out: EC50 (class)) | IC50 ([3]; read-out: HRV IC50 (class)) | EC50 ([6]; read-out: EC50 (bound)) | EC50 ([5]; […], numeric bounds given instead of class symbols) |
| --- | --- | --- | --- | --- | --- | --- | --- | --- | --- |
| CC(C)(C)[C@H](NC(=O)C(F)(F)F)C(=O)N1C[C@@H]2[C@H]3C[C@H]([C@@H]4C[C@@H]43)[C@@H]2[C@H]1C(=O)N[C@H](C#N)C[C@@H]1CCNC1=O [Example 2, (1R,2S,3S,6R,7S,8S,10R)—N-[(1S)-1-cyano-2-[(3S)-2-oxopyrrolidin-3-yl]ethyl]-4-[(2S)-3,3-dimethyl-2-(2,2,2-trifluoroacetamido)butanoyl]-4-azatetracyclo[5.3.1.0^{2,6}0.0^{8,10}]undecane-3-carboxamide] | 0.02 to 0.2 µM | ≥ 10 µM | > 10 µM | < 0.1 µM | < 0.1 µM | 0.1 to 1 µM |  |  |  |
| O=C(NC1CC1)C(=O)C(C[C@@H]1CCNC1=O)NC(=O)[C@@H]1[C@@H]2[C@H](CN1C(=O)[C@@H]1C[C@]13CCCc1ccccc13)[C@@H]1C=C[C@H]2C1 (stereo partly drawn) [Example 11, (1S,3aR,4S,7R,7aS)—N-(4-(cyclopropylamino)-3,4-dioxo-1-((S)-2-oxopyrrolidin-3-yl)butan-2-yl)-2-((1R,2R)-3′,4′-dihydro-2′H-spiro[cyclopropane-1,1′-naphthalene]-2-carbonyl)-2,3,3a,4,7,7a-hexahydro-1H-4,7-methanoisoindole-1-carboxamide] | < 0.02 µM | ≥ 10 µM |  | 0.1 to 1 µM | 0.1 to 1 µM | 0.1 to 1 µM | 0.2 to 2 µM |  |  |
| CC(C)(C)[C@H](NC(=O)C(F)(F)F)C(=O)N1C[C@@H]2[C@@H]3CC[C@@H](C3)[C@@H]2[C@H]1C(=O)N[C@H](C#N)C[C@@H]1CCNC1=O [Example 12, (1S,3aR,4R,7S,7aS)-N-((S)-1-cyano-2-((S)-2-oxopyrrolidin-3-yl)ethyl)-2-((S)-3,3-dimethyl-2-(2,2,2-trifluoroacetamido)butanoyl)octahydro-1H-4,7-methanoisoindole-1-carboxamide] | < 0.02 µM | ≥ 10 µM | > 10 µM | < 0.1 µM | < 0.1 µM | < 0.1 µM |  |  |  |
| CC(C)(C)[C@H](NC(=O)C1(F)CC1)C(=O)N1C[C@H]2[C@@H]([C@H]1C(=O)N[C@H](C#N)C[C@@H]1CCNC1=O)[C@H]1C=C[C@@H]2C1 [Example 30, (1R,2S,3S,6R,7S)—N-[(1S)-1-cyano-2-[(3S)-2-oxopyrrolidin-3-yl]ethyl]-4-[(2S)-2-[(1-fluorocyclopropyl)formamido]-3,3-dimethylbutanoyl]-4-azatricyclo[5.2.1.0^{2,6}]dec-8-ene-3-carboxamide] | < 0.02 µM | ≥ 10 µM | > 10 µM | < 0.1 µM | < 0.1 µM | < 0.1 µM |  |  |  |
| CC(C)(C)[C@H](NC(=O)C(F)(F)F)C(=O)N1C[C@H]2[C@@H]([C@H]1C(=O)NC(C#N)CC1CCc3cnnn31)[C@H]1C=C[C@@H]2C1 (stereo partly drawn) [Example 37, (1R,2S,3S,6R,7S)—N-(1-cyano-2-{4H,5H,6H-pyrrolo[1,2-c][1,2,3]triazol-6-yl}ethyl)-4-[(2S)-3,3-dimethyl-2-(2,2,2-trifluoroacetamido)butanoyl]-4-azatricyclo[5.2.1.0^{2,6}]dec-8-ene-3-carboxamide] | 0.02 to 0.2 µM | ≥ 10 µM | > 10 µM | 1 to 10 µM | 1 to 10 µM |  |  | > 10 µM |  |
| CC(C)(C)[C@H](NC(=O)C(F)(F)F)C(=O)N1C[C@H]2[C@@H]([C@H]1C(=O)N[C@H](C#N)CC1Cn3nccc3NC1=O)[C@H]1C=C[C@@H]2C1 (stereo partly drawn) [Example 9, (1S,3aR,4S,7R,7aS)—N-((1S)-1-cyano-2-(5-oxo-4,5,6,7-tetrahydropyrazolo[1,5-a]pyrimidin-6-yl)ethyl)-2-((S)-3,3-dimethyl-2-(2,2,2-trifluoroacetamido)butanoyl)-2,3,3a,4,7,7a-hexahydro-1H-4,7-methanoisoindole-1-carboxamide] | < 0.02 µM | ≥ 10 µM | > 10 µM | < 0.1 µM | 0.1 to 1 µM | < 0.1 µM |  |  |  |
| CC(C)(C)[C@H](OC1CC1)C(=O)N1C[C@H]2[C@@H]([C@H]1C(=O)N[C@H](C#N)C[C@@H]1CCNC1=O)[C@H]1C=C[C@@H]2C1 [Compound 54] | 0.2 to 2 µM | ≥ 10 µM | > 10 µM | 1 to 10 µM |  |  |  | > 10 µM | > 10 µM |
| CC(C)(C)[C@H](NC(=O)C1CC12CC2)C(=O)N1C[C@H]2[C@@H]([C@H]1C(=O)N[C@H](C#N)C[C@@H]1CCNC1=O)[C@H]1C=C[C@@H]2C1 (stereo partly drawn) [Example 34, (1R,2S,3S,6R,7S)—N-[(1S)-1-cyano-2-[(3S)-2-oxopyrrolidin-3-yl]ethyl]-4-[(2S)-3,3-dimethyl-2-{spiro[2.2]pentan-1-ylformamido}butanoyl]-4-azatricyclo[5.2.1.0^{2,6}]dec-8-ene-3-carboxamide] | < 0.02 µM | ≥ 10 µM | > 10 µM | < 0.1 µM | 0.1 to 1 µM | < 0.1 µM |  |  |  |
| CC(C)(C)[C@H](NC(=O)C(F)(F)F)C(=O)N1C[C@H]2[C@@H]([C@H]1C(=O)N[C@H](C#N)C[C@@H]1CC3(CC3)NC1=O)[C@H]1C=C[C@@H]2C1 [Example 14, (1S,3aR,4S,7R,7aS)-N-((S)-1-cyano-2-((R)-5-oxo-4-azaspiro[2.4]heptan-6-yl)ethyl)-2-((S)-3,3-dimethyl-2-(2,2,2-trifluoroacetamido)butanoyl)-2,3,3a,4,7,7a-hexahydro-1H-4,7-methanoisoindole-1-carboxamide] | < 0.02 µM | ≥ 10 µM | > 10 µM | < 0.1 µM | < 0.1 µM | < 0.1 µM |  |  |  |
| CC(C)(C)[C@H](NC(=O)[C@@H]1CC1(F)F)C(=O)N1C[C@H]2[C@@H]([C@H]1C(=O)N[C@H](C#N)C[C@@H]1CCNC1=O)[C@H]1C=C[C@@H]2C1 [Compound 41] | < 0.02 µM | ≥ 10 µM | > 10 µM | < 0.1 µM | < 0.1 µM | < 0.1 µM |  |  |  |
| CC(C)(C)[C@H](NC(=O)C1COC1)C(=O)N1C[C@H]2[C@@H]([C@H]1C(=O)N[C@H](C#N)C[C@@H]1CCNC1=O)[C@H]1C=C[C@@H]2C1 [Example 36, (1R,2S,3S,6R,7S)—N-[(1S)-1-cyano-2-[(3S)-2-oxopyrrolidin-3-yl]ethyl]-4-[(2S)-3,3-dimethyl-2-(oxetan-3-ylformamido)butanoyl]-4-azatricyclo[5.2.1.0^{2,6}]dec-8-ene-3-carboxamide] | < 0.02 µM | ≥ 10 µM | > 10 µM | 0.1 to 1 µM | 1 to 10 µM | 0.1 to 1 µM |  |  |  |
| CC(C)(C)[C@H](NC(=O)C1(C2CC2)CC1)C(=O)N1C[C@H]2[C@@H]([C@H]1C(=O)N[C@H](C#N)C[C@@H]1CCNC1=O)[C@H]1C=C[C@@H]2C1 [Example 35, (1R,2S,3S,6R,7S)-4-[(2S)-2-{[1,1′-bi(cyclopropane)]-1-ylformamido}-3,3-dimethylbutanoyl]-N-[(1S)-1-cyano-2-[(3S)-2-oxopyrrolidin-3-yl]ethyl]-4-azatricyclo[5.2.1.0^{2,6}]dec-8-ene-3-carboxamide] | 0.02 to 0.2 µM | ≥ 10 µM | > 10 µM | 0.1 to 1 µM | 1 to 10 µM | 0.1 to 1 µM |  |  |  |
| N#C[C@H](C[C@@H]1CCNC1=O)NC(=O)[C@@H]1[C@@H]2[C@H](CN1C(=O)[C@@H](NC(=O)C(F)(F)F)C13CC(C1)C3)[C@@H]1C=C[C@H]2C1 [Example 27, (1R,2S,3S,6R,7S)-4-[(2S)-2-{bicyclo[1.1.1]pentan-1-yl}-2-(2,2,2-trifluoroacetamido)acetyl]-N-[(1S)-1-cyano-2-[(3S)-2-oxopyrrolidin-3-yl]ethyl]-4-azatricyclo[5.2.1.0^{2,6}]dec-8-ene-3-carboxamide] | < 0.02 µM | ≥ 10 µM | > 10 µM | < 0.1 µM | 0.1 to 1 µM | < 0.1 µM |  |  |  |
| O=C(NC1CC1)C(=O)C(C[C@@H]1CCNC1=O)NC(=O)[C@@H]1[C@@H]2[C@H](CN1C(=O)c1nc3c(Cl)ccc(Cl)c3[nH]1)[C@@H]1C=C[C@H]2C1 (stereo partly drawn) [Compound 45, (1S,3aR,4S,7R,7aS)—N-(4-(cyclopropylamino)-3,4-dioxo-1-((S)-2-oxopyrrolidin-3-yl)butan-2-yl)-2-(4,7-dichloro-1H-benzo[d]imidazole-2-carbonyl)-2,3,3a,4,7,7a-hexahydro-1H-4,7-methanoisoindole-1-carboxamide] | 0.02 to 0.2 µM | ≥ 10 µM |  | 1 to 10 µM | 1 to 10 µM | 1 to 10 µM | 2 to 20 µM |  |  |
| CN1CC(C[C@@H](C#N)NC(=O)[C@@H]2[C@@H]3[C@H](CN2C(=O)[C@@H](NC(=O)C(F)(F)F)C(C)(C)C)[C@@H]2C=C[C@H]3C2)C(=O)N1 (stereo partly drawn) [Compound 49, (1S,3aR,4S,7R,7aS)-N-((S)-1-cyano-2-(1-methyl-3-oxopyrazolidin-4-yl)ethyl)-2-((S)-3,3-dimethyl-2-(2,2,2-trifluoroacetamido)butanoyl)-2,3,3a,4,7,7a-hexahydro-1H-4,7-methanoisoindole-1-carboxamide] | < 0.02 µM | ≥ 10 µM | > 10 µM | 0.1 to 1 µM | 0.1 to 1 µM | 0.1 to 1 µM |  |  |  |

From patent publication US12252481B2, “Anti-viral compounds” (Aligos Therapeutics, Inc., priority 2021, dated 2025)
